In PubChem BioAssay AID330 (DTP/NCI, 2004):
Where “and” joins values, the source holds several entries; their conditions need not be identical. Equal entries are not always repeated. Toxic doses and inconclusive results are not listed.

System: P388 leukemia ip, CD2F1 mice, survival T/C
Experiment: NCI In Vivo Anticancer Drug Screen. Data for tumor model P388 Leukemia (intraperitoneal) in CD2F1 (CDF1) mice
Conditions: endpoint: median survival time, higher = longer survival
Procedure, shortened: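 Mice carrying the transplanted tumor received test compound or vehicle. Survival was recorded in each group, and the value is the treated-group measurement divided by that of the vehicle-treated control group.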

[1] = dose: 100.0 mg/kg/injection, schedule: Q04DX003 (ip), vehicle: saline with Tween-80
[2] = dose: 200.0 mg/kg/injection, schedule: Q04DX003 (ip), vehicle: saline with Tween-80
[3] = dose: 12.5 mg/kg/injection, schedule: Q01DX009 (ip), vehicle: Klucel (hydroxypropylcellulose) (HPC)

## O=C(O)c1ccc(=O)[nH]c1
dose: 100.0 mg/kg/injection, schedule: Q01DX009 (ip), vehicle: saline
  T/C: 101 % of control and 107 % of control
dose: 200.0 mg/kg/injection, schedule: Q01DX009 (ip), vehicle: saline
  T/C: 110 % of control and 118 % of control
dose: 400.0 mg/kg/injection, schedule: Q01DX009 (ip), vehicle: saline
  T/C: 100 % of control and 109 % of control
dose: 600.0 mg/kg/injection, schedule: Q01DX009 (ip), vehicle: saline
  T/C: 104 % of control and 106 % of control

## Cc1ccc(C)c2c(Nc3ccc4c(c3)OCO4)c(C(=O)O)cnc12
dose: 60.0 mg/kg/injection, schedule: Q01DX005 (ip), vehicle: Klucel + Tween-80
  T/C: 95 % of control
dose: 120.0 mg/kg/injection, schedule: Q01DX005 (ip), vehicle: Klucel + Tween-80
  T/C: 93 % of control

## CN(C)CCN1C(=O)C2C3CCC(C)(O3)C2C1=O (configuration not stated)
dose: 50.0 mg/kg/injection, schedule: Q01DX005 (ip), vehicle: saline
  T/C: 99 % of control
dose: 100.0 mg/kg/injection, schedule: Q01DX005 (ip), vehicle: saline
  T/C: 104 % of control
dose: 200.0 mg/kg/injection, schedule: Q01DX005 (ip), vehicle: saline
  T/C: 103 % of control

## CCCCc1c(O)nc2nc(-c3ccccc3)c(-c3ccccc3)nn2c1=O
dose: 3.12 mg/kg/injection, schedule: Q01DX005 (ip), vehicle: Klucel (hydroxypropylcellulose) (HPC)
  T/C: 107 % of control
dose: 6.25 mg/kg/injection, schedule: Q01DX005 (ip), vehicle: Klucel (hydroxypropylcellulose) (HPC)
  T/C: 103 % of control
dose: 12.5 mg/kg/injection, schedule: Q01DX005 (ip), vehicle: Klucel (hydroxypropylcellulose) (HPC)
  T/C: 94 % of control

## C=C[C@H]1[C@H](OC2OC(CO)C(O)C(O)C2O)OC=C2C(=O)N3CCc4c([nH]c5ccccc45)C3C[C@H]21 (some centres not stated)
dose: 100.0 mg/kg/injection, schedule: Q01DX001 (ip), vehicle: saline with Tween-80
  T/C: 107 % of control
dose: 200.0 mg/kg/injection, schedule: Q01DX001 (ip), vehicle: saline with Tween-80
  T/C: 94 % of control
dose: 400.0 mg/kg/injection, schedule: Q01DX001 (ip), vehicle: saline with Tween-80
  T/C: 89 % of control

## O=C(NN(CCN(NC(=O)c1ccccc1)C(=O)c1ccccc1)C(=O)c1ccccc1)c1ccccc1
dose: 50.0 mg/kg/injection, schedule: Q01DX005 (ip), vehicle: saline with Tween-80
  T/C: 99 % of control
dose: 100.0 mg/kg/injection, schedule: Q01DX005 (ip), vehicle: saline with Tween-80
  T/C: 92 % of control
dose: 200.0 mg/kg/injection, schedule: Q01DX005 (ip), vehicle: saline with Tween-80
  T/C: 96 % of control

## CC(C)(C(=O)O)C(Nc1ncnc2c1ncn2C1OC(CO)C(O)C1O)C(=O)O (configuration not stated)
dose: 100.0 mg/kg/injection, schedule: Q04DX003 (ip), vehicle: saline
  T/C: 100 % of control
dose: 200.0 mg/kg/injection, schedule: Q04DX003 (ip), vehicle: saline
  T/C: 106 % of control

## CCOC(=O)NNC(=O)Nc1ccccc1F
dose: 60.0 mg/kg/injection, schedule: Q01DX005 (ip), vehicle: saline with Tween-80
  T/C: 108 % of control
dose: 120.0 mg/kg/injection, schedule: Q01DX005 (ip), vehicle: saline with Tween-80
  T/C: 96 % of control
dose: 240.0 mg/kg/injection, schedule: Q01DX005 (ip), vehicle: saline with Tween-80
  T/C: 99 % of control

## COC(=O)NC(=O)CNc1ncc([N+](=O)[O-])s1
dose: 100.0 mg/kg/injection, schedule: Q01DX001 (ip), vehicle: saline
  T/C: 107 % of control
dose: 200.0 mg/kg/injection, schedule: Q01DX001 (ip), vehicle: saline
  T/C: 107 % of control
dose: 400.0 mg/kg/injection, schedule: Q01DX001 (ip), vehicle: saline
  T/C: 88 % of control

## CCCCN=Cc1ccccc1
[1]
  T/C: 100 % of control
[2]
  T/C: 100 % of control

## Nc1nc(=S)c2[nH]c(-c3ccccc3)nc2[nH]1
dose: 12.5 mg/kg/injection, schedule: Q01DX005 (ip), vehicle: other
  T/C: 106 % of control
dose: 25.0 mg/kg/injection, schedule: Q01DX005 (ip), vehicle: other
  T/C: 100 % of control
dose: 50.0 mg/kg/injection, schedule: Q01DX005 (ip), vehicle: other
  T/C: 102 % of control
dose: 100.0 mg/kg/injection, schedule: Q01DX005 (ip), vehicle: other
  T/C: 100 % of control

## CN1CCC(CNC(=O)CCCCCCCCC(=O)NCC2(c3ccccc3)CCN(C)CC2)(c2ccccc2)CC1
dose: 0.39 mg/kg/injection, schedule: Q01DX009 (ip), vehicle: saline
  T/C: 100 % of control
dose: 0.78 mg/kg/injection, schedule: Q01DX009 (ip), vehicle: saline
  T/C: 96 % of control
dose: 1.56 mg/kg/injection, schedule: Q01DX009 (ip), vehicle: saline
  T/C: 105 % of control
dose: 3.12 mg/kg/injection, schedule: Q01DX009 (ip), vehicle: saline
  T/C: 111 % of control

## CSc1sc(C#N)c2nc3c(nc12)-c1cccc2cccc-3c12
dose: 50.0 mg/kg/injection, schedule: Q04DX002 (ip), vehicle: saline with Tween-80
  T/C: 88 % of control
dose: 100.0 mg/kg/injection, schedule: Q04DX002 (ip), vehicle: saline with Tween-80
  T/C: 88 % of control
dose: 200.0 mg/kg/injection, schedule: Q04DX002 (ip), vehicle: saline with Tween-80
  T/C: 91 % of control

## Cc1cc(N(CCOS(C)(=O)=O)CCOS(C)(=O)=O)ccc1C=Nc1ccc(-c2nc(Cc3ccccc3)sc2C)cc1
[3]
  T/C: 101 % of control
dose: 12.5 mg/kg/injection, schedule: Q01DX009 (oral), vehicle: Klucel (hydroxypropylcellulose) (HPC)
  T/C: 106 % of control and 107 % of control
dose: 25.0 mg/kg/injection, schedule: Q01DX009 (oral), vehicle: Klucel (hydroxypropylcellulose) (HPC)
  T/C: 100 % of control and 107 % of control
dose: 50.0 mg/kg/injection, schedule: Q01DX009 (oral), vehicle: Klucel (hydroxypropylcellulose) (HPC)
  T/C: 106 % of control and 117 % of control
dose: 100.0 mg/kg/injection, schedule: Q01DX009 (oral), vehicle: Klucel (hydroxypropylcellulose) (HPC)
  T/C: 108 % of control
dose: 200.0 mg/kg/injection, schedule: Q01DX009 (oral), vehicle: Klucel (hydroxypropylcellulose) (HPC)
  T/C: 119 % of control and 124 % of control
dose: 400.0 mg/kg/injection, schedule: Q01DX009 (oral), vehicle: Klucel (hydroxypropylcellulose) (HPC)
  T/C: 106 % of control

## CC(=O)/C=C/C=C\C=C/N=C(c1ccccc1)c1ccccc1
dose: 50.0 mg/kg/injection, schedule: Q04DX003 (ip), vehicle: saline with Tween-80
  T/C: 95 % of control
[1]
  T/C: 93 % of control
[2]
  T/C: 93 % of control

## CCOC(=O)Nc1nc2ccc(SC#N)cc2s1
dose: 6.25 mg/kg/injection, schedule: Q01DX009 (ip), vehicle: Klucel (hydroxypropylcellulose) (HPC)
  T/C: 107 % of control
[3]
  T/C: 107 % of control
dose: 25.0 mg/kg/injection, schedule: Q01DX009 (ip), vehicle: Klucel (hydroxypropylcellulose) (HPC)
  T/C: 96 % of control

## Nc1nc(Cc2ccccc2)cc(-c2cc(Cc3ccccc3)nc(N)n2)n1
dose: 60.0 mg/kg/injection, schedule: Q01DX005 (ip), vehicle: Klucel (hydroxypropylcellulose) (HPC)
  T/C: 90 % of control
dose: 120.0 mg/kg/injection, schedule: Q01DX005 (ip), vehicle: Klucel (hydroxypropylcellulose) (HPC)
  T/C: 95 % of control
dose: 240.0 mg/kg/injection, schedule: Q01DX005 (ip), vehicle: Klucel (hydroxypropylcellulose) (HPC)
  T/C: 97 % of control

## COCCOC(=O)CCn1cc(F)c(=O)[nH]c1=O
dose: 30.0 mg/kg/injection, schedule: Q04DX002 (ip), vehicle: saline
  T/C: 92 % of control
dose: 60.0 mg/kg/injection, schedule: Q04DX002 (ip), vehicle: saline
  T/C: 108 % of control
dose: 120.0 mg/kg/injection, schedule: Q04DX002 (ip), vehicle: saline
  T/C: 96 % of control
dose: 200.0 mg/kg/injection, schedule: Q04DX002 (ip), vehicle: saline
  T/C: 91 % of control and 123 % of control
dose: 240.0 mg/kg/injection, schedule: Q04DX002 (ip), vehicle: saline
  T/C: 96 % of control
dose: 400.0 mg/kg/injection, schedule: Q04DX002 (ip), vehicle: saline
  T/C: 93 % of control
dose: 600.0 mg/kg/injection, schedule: Q04DX002 (ip), vehicle: saline
  T/C: 91 % of control
dose: 800.0 mg/kg/injection, schedule: Q04DX002 (ip), vehicle: saline
  T/C: 118 % of control
dose: 1600.0 mg/kg/injection, schedule: Q04DX002 (ip), vehicle: saline
  T/C: 155 % of control

## Nc1cc2c(cc1C=O)OCO2
dose: 100.0 mg/kg/injection, schedule: Q04DX003 (ip), vehicle: Klucel (hydroxypropylcellulose) (HPC)
  T/C: 99 % of control
dose: 200.0 mg/kg/injection, schedule: Q04DX003 (ip), vehicle: Klucel (hydroxypropylcellulose) (HPC)
  T/C: 93 % of control
dose: 400.0 mg/kg/injection, schedule: Q04DX003 (ip), vehicle: Klucel (hydroxypropylcellulose) (HPC)
  T/C: 107 % of control
